From patent US20090203661A1, “Betulinic acid, derivatives and analogs thereof and uses therefor” (priority 2006, published 2009)
pIC50: −log10 of the molar value.

What was measured:
SW480 cells = assay: Apoptosis (PARP cleavage, Western blot) in SW480 cells; type: cell-based, human; conditions: SW480, 24 hr
Experimental: (§1) Induction of KLF4 in HT-29 (FIG. 12A) and SW480 (FIG. 12B) cells. Cells were treated with different concentrations of CDODA isomers or T007 alone or in combination, and KLF4 mRNA levels were determined by real time PCR. […] KLF4 mRNA levels were not induced in SW480 cells by BA derivatives. FIGS. 12C-12D show induction of apoptosis. Panc28 (FIG. 12C) and SW480 (FIG. 12D) cells were treated for 24 hr with betulinic acid and related compounds and whole cell lysates were examined by Western blot analysis.
(§2) SW480, HT-29, HCT-15 and Panc-28 (3×10^5) colon cancer cells were seeded in 6-well tissue culture plates in DMEM/Ham's F-12 medium containing 2.5% charcoal-stripped FBS. Protein is extracted from the cells treated either with vehicle or indicated compounds suspended for 24 hr except for caveolin-1 protein which was done for 72 hr. Samples were extracted in high salt buffer [50 mmol/L HEPES, 500 mmol/L NaCl, 1.5 mmol/L MgCl2, 1 mmol/L EGTA, 10% glycerol, and 1% Triton X-100 (pH 7.5), and 5 μL/mL protease inhibitor cocktail (Sigma-Aldrich)]. Samples were incubated at 100° C. for 2 min, separated on either 10% or 12% SDS-PAGE gels and then transferred to polyvinylidene difluoride membrane (PVDF; Bio-Rad, Hercules, Calif.). […]

Panc28 cells = assay: Apoptosis (PARP cleavage, Western blot) in Panc28 cells; type: cell-based, human; conditions: Panc28, 24 hr
Experimental: as §1, §2

[1] = system: LNCaP prostate cancer cells; assay: Cell proliferation (cell counting), LNCaP prostate cancer cells; type: cell-based; conditions: Homo sapiens, 144 h, 6 days, read-out: 6-day IC50 values for growth inhibition
Experimental: Human carcinoma cell lines LNCaP (prostate) and SK-MEL2 (melanoma) were obtained from American Type Culture Collection (Manassas, Va.). Cell lines were maintained in RPMI 1640 (Sigma) supplemented with 0.22% sodium bicarbonate, 0.011% sodium pyruvate, 0.45% glucose, 0.24% HEPES, 10% FBS, and 10 mL/L of 100× Antibiotic Antimycotic solution (Sigma). Cells were maintained at 37° C. in the presence of 5% CO2.
Prostate and melanoma cancer cells (2×10^4 per well) were plated in 12-well plates and allowed to attach for 24 hr. The medium was then changed to DMEM:Ham's F-12 medium containing 2.5% charcoal-stripped FBS and either vehicle (DMSO) or different concentrations of the compound were added. […] Each experiment was done in triplicate and results are expressed as means±SE for each set of experiments.

Panc-28 cells = assay: Cell proliferation assay, Panc-28 cells; type: cell-based; conditions: Homo sapiens, read-out: IC50 values, inhibition of growth
Experimental: SW480, HT-29 and HCT-15 human colon cancer cells were provided by Dr. Stan Hamilton (M. D. Anderson Cancer Center (Houston, Tex.). Panc-28 human pancreatic cancer cells and 3T3-L1 pre-adipocytes were obtained from American Type Culture Collection (Manassas, Va.). SW480, HT-29 and Panc-28 cells were maintained in Dulbecco's modified/Ham's F-12 (Sigma-Aldrich, St Louis, Mo.) with phenol red supplemented with 0.22% sodium bicarbonate, 0.011% sodium pyruvate, 5% fetal bovine serum, and 10 mL/L 100× antibiotic antimycotic solution (Sigma). HCT-15 cells were maintained in RPMI 1640 (Sigma) supplemented with 0.22% sodium bicarbonate, 0.011% sodium pyruvate, 0.45% glucose, 0.24% HEPES, 10% fetal bovine serum, and 10 mL/L of 100× antibiotic antimycotic solution (Sigma). Cells were maintained at 37° C. in the presence of 5% CO2.
This assay is performed in 12-well tissue culture plates at the concentration of 2×10^4 cells per well, using DMEM/Ham's F-12 media containing 2.5% charcoal stripped FBS. The cells were counted on the initial day using a Z1 cell counter (Beckman Coulter, Fullerton, Calif.) and then were treated either with vehicle (DMSO) or the indicated triterpenoid compounds, each sample in triplicate. Every 48 hr, fresh medium was added along with the indicated compounds. […] The results are expressed as means±S.E for each set of triplicate.

LNCaP cell xenografts = assay: LNCaP xenograft in athymic nude mice; type: in vivo
Experimental: Male athymic BALB/c nude mice (age 4-6 weeks) were purchased from Harlan (Indianapolis, Ind.). LNCaP cells (1×106) were implanted with matrigel (BD Biosciences, San Jose, Calif.) subcutaneously into the flank of each mouse. Ten days after cell inoculation, animals were divided into three groups of 10 mice each. The first group received 100 μL vehicle (1% DMSO in corn oil) by oral gavage and the second and third groups of animals received 10 and 20 mg/kg/d doses of BA in vehicle every second day for 14 days (7 doses). The mice were weighed, and tumor areas were measured throughout the study. After 22 days, the animals were sacrificed, final body and tumor weights were determined and selected tissues were further examined by routine hematoxylin and eosin staining and immunohistochemical analysis.
Tissue sections ([…] thick) mounted on poly-Lysine-coated slides were deparaffinized by standard methods. Endogenous peroxidase was blocked by the use of 3% hydrogen peroxide in PBS for 10 min. Antigen retrieval for VEGF and CD31 staining was done for 10 min in 10 mmol/L sodium citrate buffer (pH 6) heated at 95° C. in a steamer followed by cooling for 15 min. […] Hematoxylin and eosin staining was determined as previously described.

| pIC50 [1] | pIC50 (Panc-28 cells) | Compound | caspase-dependent PARP cleavage (SW480 cells) | caspase-dependent PARP cleavage (Panc28 cells) | changes in organ or body weights or histopathology of liver and other tissues (LNCaP cell xenografts; 10 and 20 mg/kg/d, data not shown) | mitotic activity in tumors (LNCaP cell xenografts; treated mice, corn oil group 6-8) |
| --- | --- | --- | --- | --- | --- | --- |
| – | – | CC(C)C1CCC2(C(=O)O)CCC3(C)C(CCC4C5(C)C=C(C#N)C(=O)C(C)(C)C5CCC43C)C12 (stereo not drawn) [CN-BA] | induced caspase-dependent PARP cleavage | induced caspase-dependent PARP cleavage | – | – |
| 5.30 to 6.00 | 5.30 to 6.00 | C=C(C)[C@@H]1CC[C@]2(C(=O)O)CC[C@]3(C)[C@H](CC[C@@H]4[C@@]5(C)CC[C@H](O)C(C)(C)[C@@H]5CC[C@]43C)[C@@H]12 [betulinic acid, Betulinic acid] | – | – | no treatment-related changes | 1-2 microfigures/hpf |
